“Also recorded” adds a separate entry of the source.
Assays:
[1] = tested on: carotid artery occlusion model; experiment: Carotid artery occlusion model, Speckle laser Doppler, intranasal nitric oxide; format: in vivo, rodents
Protocol: (§1) In intubated rodents, the inventors have shown that cerebral blood flow increases by 100% within 60 minutes of intranasal nitric oxide delivery.
Increase in cerebral blood flow is attributable to focal intranasal or intra-oral effect of nitric oxide rather than to systemic absorption of the gas. […] The effect on cerebral blood flow during intranasal delivery of nitric oxide with concomitant air inhalation into the lungs is therefore a focal effect on intranasal and intracranial vasculature attributable specifically to nitric oxide. […] In a non-intubated patient, nitric oxide inhalation can be prevented by occluding the nasal cavity anterior or posterior to the site of gas delivery. This is achieved by means of an anterior occlusion device such a rigid member, an expandable member, a compressible member, a sponge, a porous member, a plug, a balloon, foam and/or combinations of the foregoing, which prevent inhalation through the nostrils while maintaining a high concentration of nitric oxide in the nasal cavity. A non-intubated patient may be allowed to inhale air into the lungs during nitric oxide delivery into the nasal cavity by an optional central lumen with the distal orifice beyond the sites of nasal gas delivery and occlusion device.

[2] = tested on: patients with cerebral ischemia; experiment: CT perfusion scanning in intubated patients with cerebral ischemia before and after intranasal nitric oxide; format: in vivo, human
[3] = tested on: humans (normal volunteers); experiment: Tolerability of intranasal nitric oxide in normal volunteers; format: in vivo, human; conditions: high concentration, delivered intra-nasally and without inhalation
Text: While nitric oxide may be given intranasally and without inhalation into the lungs to intubated, comatose individuals the tolerability of intranasal nitric oxide in awake humans has not previously been investigated. The inventors have tested the effect of nitric oxide in humans (normal volunteers) during intranasal delivery. […] Therefore it can easily be tolerated by awake, non-intubated patients.

intubated rodents = experiment: Cerebral blood flow by cortical laser Doppler during intranasal nitric oxide in intubated rodents; format: in vivo
Protocol: as §1

SMILES: [N]=O [nitric oxide]
- perfusion in the ischemic hemisphere ([1]; both during the carotid occlusion and following ligature release (FIG. 9)): improved
- cerebral ischemia (FIG. 9, Speckle laser Doppler tracing) ([1]; intubated rodents given intranasal nitric oxide): reduction of cerebral ischemia
- increase in perfusion on L (Cerebral Blood Flow, ACA Watershed) ([2]; Post Rx versus Pre Rx, left ischemic hemisphere): 67% increase in
- Mean Transit Time, Changes in ACA Watershed ([2]; Post Rx, Pre Rx 4 sec delay): Normalization
- Cerebral Blood Flow, Changes in ACA Watershed ([2]; Post Rx, Pre Rx 37% lower on ischemic side): Normalization,
- cerebral perfusion by CT perfusion scanning ([2]; intubated patients with cerebral ischemia, during treatment with intranasal nitric oxide (FIGS. 10, 11)): improvement in cerebral perfusion; also recorded: augmentation of cerebral perfusion and normalization of regional perfusion abnormalities
- tolerability of gas treatment [3]: tolerated
- cerebral blood flow (FIG. 8, cortical laser Doppler) (intubated rodents; during intranasal administration): doubling of cerebral blood flow
- cerebral blood flow increase (intubated rodents; within 60 minutes of intranasal non-inhaled nitric oxide delivery): 100%
